Experimental data from patent US9420782B2, “Pesticidal composition in the form of aqueous emulsion” (Sumitomo Chemical Company, Limited, priority 2012, dated 2016).

Assay: Retention rate of the agriculturally active ingredient after xenon light irradiation (film on glass petri dish)
Assay type: physicochemical
Details: xenon light (290 nm cutoff), 0.68 W/m^2 at 340 nm, 35° C., neat active ingredient air-dried on petri dish
Description: A method for the calculation of a retention rate of the agriculturally active ingredient defined above is more specifically as follows. First, 250 mg of the agriculturally active ingredient is dissolved in 50 mL of a solvent such as acetone, which can sufficiently dissolve the agriculturally active ingredient and also has high volatility, and 1 mL of the solution is added to a glass petri dish having a diameter of 6 cm using a one-mark pipette, spread entirely over the petri dish, and then air-dried at room temperature. The petri dish is covered with a lid made of quartz glass and then set in a weathering tester (manufactured by Q-Lab Corporation under the trade name of Q-SUN Xenon Accelerated Weathering Tester, Model Xe-3) equipped with a borosilicate filter (manufactured by Q-Lab Corporation under the trade name of Daylight-BB Optical Filter) attached thereto. After irradiation with xenon light under the conditions of an intensity at 340 nm of 0.68 W/m^2 and a temperature of 35° C. (35° C. as measured by an insulated black panel thermometer) for a predetermined time, the amount of the agriculturally active ingredient remaining on the petri dish is determined by a known determination method such as high-performance liquid chromatography. […]

retention rate after irradiation with xenon light (8 hours): 93.1% | retention rate after irradiation with xenon light (56 hours): 50.3%
Compound: CNC(=O)C(OC)c1ccccc1COc1cc(C)ccc1C (stereo not drawn) [compound A, 2-[(2,5-dimethylphenoxy)methyl]-α-methoxy-N-methyl-benzeneacetamide]
